Tests used:
Assay in all cases: relative viability (nuclei count vs DMSO), 5 days (fraction); higher = more cells survive
Trametinib + Lapatinib = compound: CC(=O)Nc1cccc(-n2c(=O)n(C3CC3)c(=O)c3c(Nc4ccc(I)cc4F)n(C)c(=O)c(C)c32)c1 [Trametinib] + CS(=O)(=O)CCNCc1ccc(-c2ccc3ncnc(Nc4ccc(OCc5cccc(F)c5)c(Cl)c4)c3c2)o1 [Lapatinib] (partner 2 µM)
Method in brief: (§1)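 One day after seeding in 1536-well plates, lung cancer cell lines were dosed by pin tool. Dosing was either single-drug or a fixed anchor-drug dose plus five library-drug doses (not always all listed) in √10 steps. After 5 days, nuclei were stained in one fix-and-stain step and counted on 4× images, and relative viability is the nuclei count of treated wells over that of vehicle wells, given as the median of duplicate plates.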

[1] = compound: CN1C=C(C2=CC=CC=C21)/C=C\3/C4=C(C=CC=N4)NC3=O + CC(=O)Nc1cccc(-n2c(=O)n(C3CC3)c(=O)c3c(Nc4ccc(I)cc4F)n(C)c(=O)c(C)c32)c1 [Trametinib] (partner 0.02 µM)
Method in brief: as §1

[2] = compound: CN1C=C(C2=CC=CC=C21)/C=C\3/C4=C(C=CC=N4)NC3=O + Cc1nc(Nc2ncc(C(=O)Nc3c(C)cccc3Cl)s2)cc(N2CCN(CCO)CC2)n1 [Dasatinib] (partner 0.075 µM)
Method in brief: as §1

[3] = compound: CN1C=C(C2=CC=CC=C21)/C=C\3/C4=C(C=CC=N4)NC3=O + O=C(c1cc(Cc2n[nH]c(=O)c3ccccc23)ccc1F)N1CCN(C(=O)C2CC2)CC1 [Olaparib] (partner 8 µM)
Method in brief: as §1

Cell Line | relative viability (Trametinib + Lapatinib; first compound 0.0025 µM) | relative viability (Trametinib + Lapatinib; first compound 0.007906 µM) | relative viability (Trametinib + Lapatinib; first compound 0.025 µM) | relative viability (Trametinib + Lapatinib; first compound 0.07906 µM) | relative viability (Trametinib + Lapatinib; first compound 0.25 µM) | relative viability ([1]; first compound 0.02 µM) | relative viability ([1]; first compound 0.06325 µM) | relative viability ([1]; first compound 0.2 µM) | relative viability ([1]; first compound 0.6325 µM) | relative viability ([1]; first compound 2 µM) | relative viability ([2]; first compound 0.02 µM) | relative viability ([2]; first compound 0.06325 µM) | relative viability ([2]; first compound 0.2 µM) | relative viability ([2]; first compound 0.6325 µM) | relative viability ([2]; first compound 2 µM) | relative viability ([3]; first compound 0.02 µM) | relative viability ([3]; first compound 0.06325 µM) | relative viability ([3]; first compound 0.2 µM) | relative viability ([3]; first compound 0.6325 µM) | relative viability ([3]; first compound 2 µM)
NCI-H2087 | 1.1 | 0.665 | 0.496 | 0.254 | 0.18 | 0.149 | 0.208 | 0.153 | 0.189 | 0.215 | 0.868 | 0.843 | 0.838 | 0.824 | 0.877 | 0.513 | 0.56 | 0.62 | 0.511 | 0.653
NCI-H2126 | 0.721 | 0.675 | 0.46 | 0.703 | 0.718 | 0.558 | 0.55 | 0.564 | 0.212 | 0.506 | 0.548 | 0.534 | 0.547 | 0.545 | 0.432 | 0.888 | 0.853 | 0.919 | 0.971 | 0.883
NCI-H2170 | 0.311 | 0.258 |  | 0.261 | 0.246 | 0.915 | 0.949 | 0.917 | 0.954 | 0.875 | 0.442 | 0.581 | 0.525 | 0.468 | 0.597 | 0.652 | 0.559 | 0.628 | 0.517 | 0.578
NCI-H2228 | 0.881 | 0.513 | 0.765 | 0.734 | 0.286 | 0.379 | 0.464 | 0.24 | 0.285 | 0.566 | 0.524 | 0.458 |  |  | 0.485 | 0.951 | 0.534 | 0.579 | 0.476 | 0.768
NCI-H2347 | 0.961 | 0.56 | 0.503 | 0.435 | 0.452 | 0.246 | 0.271 | 0.296 | 0.319 | 0.274 |  | 0.296 | 0.222 | 0.302 | 0.938 | 0.491 | 0.503 | 0.539 | 0.565 | 0.616
NCI-H2405 | 0.992 | 0.68 | 0.498 | 0.499 | 0.481 | 0.686 | 0.561 | 0.564 | 0.657 | 0.617 | 0.253 | 0.22 | 0.205 | 0.196 | 0.241 | 0.854 | 0.843 | 0.729 | 0.87 | 0.804
NCI-H3122 | 0.995 | 0.737 | 0.699 | 0.584 | 0.501 | 0.153 | 0.21 | 0.227 | 0.242 | 0.269 | 0.722 | 0.756 | 0.753 | 0.844 | 0.835 | 0.621 | 0.578 | 0.653 | 0.681 | 0.652
PC-3 [JPC-3] | 0.451 | 0.425 | 0.425 | 0.404 | 0.377 | 0.824 | 0.657 | 0.667 | 0.718 | 0.717 | 1.04 | 0.888 | 1.02 | 0.866 | 1.02 | 1.03 | 1.1 | 1.12 | 1.2 | 1.16
PC-14 | 0.27 | 0.194 | 0.182 | 0.192 | 0.192 | 0.713 | 0.69 | 0.692 | 0.747 | 0.78 | 0.227 | 0.223 | 0.194 | 0.205 | 0.186 | 0.213 | 0.237 | 0.197 | 0.235 | 0.251
RERF-LC-KJ | 0.812 | 0.822 | 0.79 | 0.744 | 0.568 | 0.887 | 0.835 | 0.771 | 0.804 | 0.822 | 0.898 | 0.878 | 0.737 | 0.68 | 0.679 | 0.736 | 0.681 | 0.763 | 0.528 | 0.468
SK-LU-1 | 0.791 | 0.721 | 0.538 | 0.426 | 0.304 | 0.414 | 0.475 | 0.475 | 0.416 | 0.533 | 0.118 | 0.129 | 0.175 | 0.191 | 0.154 | 0.424 | 0.43 | 0.406 | 0.444 | 0.602
SK-MES-1 | 0.447 | 0.39 | 0.352 | 0.362 | 0.344 | 0.509 | 0.603 | 0.538 | 0.596 | 0.54 | 0.271 | 0.322 | 0.279 | 0.305 | 0.353 | 0.638 | 0.516 | 0.592 | 0.544 | 0.505
SW 1573 | 0.875 | 0.925 | 0.769 | 0.82 | 0.56 | 0.531 | 0.576 | 0.571 | 0.687 | 0.712 | 0.348 | 0.537 | 0.488 | 0.633 | 0.516 | 0.5 | 0.425 | 0.434 | 0.453 | 0.529

From the supplement of paper PMC10307832
